Literature values, collected in patent publication US20080200510A1, “Combination of Organic Compounds” (priority 2005, published 2008).

How the values were obtained:
diet-induced obesity = conditions: preclinical studies; by decreasing body weight, food intake, regulating circulating lipids and energy balance
[1] = not given; remark: listed apart in the source

N#C[C@@H]1CCCN1C(=O)CNC12CC3CC(CC(O)(C3)C1)C2 [Vildagliptin, (S)-1-[(3-hydroxy-1-adamantyl)amino]acetyl-2-cyano-pyrrolidine]
glycemia (agent alone, by preserving the incretin effects): improves glycemia

Cc1c(C(=O)NN2CCCCC2)nn(-c2ccc(Cl)cc2Cl)c1-c1ccc(Cl)cc1 [rimonabant, N-piperidino-5-(4-chlorophenyl)-1-(2,4-dichlorophenyl)-4-methylpyrazole-3-carboxamide]
reversal of diet-induced obesity (diet-induced obesity): effective in reversing diet-induced obesity | body weight (agent by itself): reduction in body weight | food intake (agent by itself): decrease in food intake | body weight reduction in clinic [1]: highly effective to produce body weight reduction
